According to ChEMBL document CHEMBL5030544, “Synthesis, anti-microbial, toxicity and molecular docking studies of N-nitroso-N-phenylhydroxylamine (cupferron) and its derivatives” (Bioorg Med Chem Lett, 2021):
Values after ≈ are worked out from the molar mass of the structure shown.

Key:
Staphylococcus aureus [1] = test: Antibacterial activity against Staphylococcus aureus […] assessed as zone of inhibition at 15 mg/ml; type: functional; details: read-out: IZ
Corynebacterium [2] = test: Antibacterial activity against Corynebacterium ATCC 49368 assessed as zone of inhibition at 10 mg/ml; type: functional; details: read-out: IZ
Streptococcus pyogenes [3] = test: Antibacterial activity against Streptococcus pyogenes ATCC 19615 assessed as bacterial growth inhibition; type: functional
Corynebacterium [4] = test: Antibacterial activity against Corynebacterium ATCC 49368 assessed as zone of inhibition at 15 mg/ml; type: functional; details: read-out: IZ
Staphylococcus aureus [5] = test: Antibacterial activity against Staphylococcus aureus […] assessed as zone of inhibition at 5 mg/ml; type: functional; details: read-out: IZ
Streptococcus pyogenes [6] = test: Antibacterial activity against Streptococcus pyogenes ATCC 19615 assessed as zone of inhibition at 10 mg/ml; type: functional; details: read-out: IZ
Streptococcus pyogenes [7] = test: Antibacterial activity against Streptococcus pyogenes ATCC 19615 assessed as zone of inhibition at 5 mg/ml; type: functional; details: read-out: IZ
Klebsiella pneumoniae [8] = test: Antibacterial activity against Klebsiella pneumoniae ATCC 13883 assessed as bacterial growth inhibition; type: functional
Bacillus subtilis [9] = test: Antibacterial activity against Bacillus subtilis ATCC 23857 assessed as zone of inhibition at 10 mg/ml; type: functional; details: read-out: IZ
Bacillus subtilis [10] = test: Antibacterial activity against Bacillus subtilis ATCC 23857 assessed as zone of inhibition at 15 mg/ml; type: functional; details: read-out: IZ
Escherichia coli [11] = test: Antibacterial activity against Escherichia coli ATCC 25922 assessed as bacterial growth inhibition; type: functional
Streptococcus pyogenes [12] = test: Antibacterial activity against Streptococcus pyogenes ATCC 19615 assessed as zone of inhibition at 15 mg/ml; type: functional; details: read-out: IZ
Pseudomonas aeruginosa [13] = test: Antibacterial activity against Pseudomonas aeruginosa ATCC 27853 assessed as zone of inhibition at 10 mg/ml; type: functional; details: read-out: IZ
Klebsiella pneumoniae [14] = test: Antibacterial activity against Klebsiella pneumoniae ATCC 13883 assessed as zone of inhibition at 15 mg/kg; type: functional; details: read-out: IZ
Staphylococcus aureus [15] = test: Antibacterial activity against Staphylococcus aureus […] assessed as zone of inhibition at 10 mg/ml; type: functional; details: read-out: IZ
Pseudomonas aeruginosa [16] = test: Antibacterial activity against Pseudomonas aeruginosa ATCC 27853 assessed as zone of inhibition at 15 mg/ml; type: functional; details: read-out: IZ
Escherichia coli [17] = test: Antibacterial activity against Escherichia coli ATCC 25922 assessed as zone of inhibition at 15 mg/ml; type: functional; details: read-out: IZ
Corynebacterium [18] = test: Antibacterial activity against Corynebacterium ATCC 49368 assessed as bacterial growth inhibition; type: functional
LLC-PK1 = test: Cytotoxicity against pig LLC-PK1 cells at up to 100 uM by MTT assay; type: cell-based, Sus scrofa
Salmonella typhi [19] = test: Antibacterial activity against Salmonella typhi ATCC 6539 assessed as bacterial growth inhibition; type: functional, Salmonella enterica subsp. enterica serovar Typhi; details: Salmonella enterica
Staphylococcus aureus [20] = test: Antibacterial activity against Staphylococcus aureus […] assessed as bacterial growth inhibition; type: functional
Escherichia coli [21] = test: Antibacterial activity against Escherichia coli ATCC 25922 assessed as zone of inhibition at 10 mg/ml; type: functional; details: read-out: IZ
Pseudomonas aeruginosa [22] = test: Antibacterial activity against Pseudomonas aeruginosa ATCC 27853 assessed as zone of inhibition at 5 mg/ml; type: functional; details: read-out: IZ
Salmonella typhi [23] = test: Antibacterial activity against Salmonella typhi ATCC 6539 assessed as zone of inhibition at 5 mg/kg; type: functional, Salmonella enterica subsp. enterica serovar Typhi; details: Salmonella enterica, read-out: IZ
Corynebacterium [24] = test: Antibacterial activity against Corynebacterium ATCC 49368 assessed as zone of inhibition at 5 mg/ml; type: functional; details: read-out: IZ
Klebsiella pneumoniae [25] = test: Antibacterial activity against Klebsiella pneumoniae ATCC 13883 assessed as zone of inhibition at 10 mg/kg; type: functional; details: read-out: IZ
HepG2 = test: Cytotoxicity against human HepG2 cells at up to 100 uM by MTT assay; type: cell-based
Pseudomonas aeruginosa [26] = test: Antibacterial activity against Pseudomonas aeruginosa ATCC 27853 assessed as bacterial growth inhibition; type: functional
Escherichia coli [27] = test: Antibacterial activity against Escherichia coli ATCC 25922 assessed as zone of inhibition at 5 mg/ml; type: functional; details: read-out: IZ
Bacillus subtilis [28] = test: Antibacterial activity against Bacillus subtilis ATCC 23857 assessed as zone of inhibition at 5 mg/ml; type: functional; details: read-out: IZ
Bacillus subtilis [29] = test: Antibacterial activity against Bacillus subtilis ATCC 23857 assessed as bacterial growth inhibition; type: functional
Salmonella typhi [30] = test: Antibacterial activity against Salmonella typhi ATCC 6539 assessed as zone of inhibition at 15 mg/kg; type: functional, Salmonella enterica subsp. enterica serovar Typhi; details: Salmonella enterica, read-out: IZ
Klebsiella pneumoniae [31] = test: Antibacterial activity against Klebsiella pneumoniae ATCC 13883 assessed as zone of inhibition at 5 mg/kg; type: functional; details: read-out: IZ
Salmonella typhi [32] = test: Antibacterial activity against Salmonella typhi ATCC 6539 assessed as zone of inhibition at 10 mg/kg; type: functional, Salmonella enterica subsp. enterica serovar Typhi; details: Salmonella enterica, read-out: IZ

| SMILES | zone of inhibition at 15000 µg/mL (Staphylococcus aureus [1]) [mm] | zone of inhibition at 10000 µg/mL (Corynebacterium [2]) [mm] | MIC (Streptococcus pyogenes [3]) [µg/mL] | zone of inhibition at 15000 µg/mL (Corynebacterium [4]) [mm] | zone of inhibition at 5000 µg/mL (Staphylococcus aureus [5]) [mm] | zone of inhibition at 10000 µg/mL (Streptococcus pyogenes [6]) [mm] | zone of inhibition at 5000 µg/mL (Streptococcus pyogenes [7]) [mm] | MIC (Klebsiella pneumoniae [8]) [µg/mL] | zone of inhibition at 10000 µg/mL (Bacillus subtilis [9]) [mm] | zone of inhibition at 15000 µg/mL (Bacillus subtilis [10]) [mm] | MIC (Escherichia coli [11]) [µg/mL] | zone of inhibition at 15000 µg/mL (Streptococcus pyogenes [12]) [mm] | zone of inhibition at 10000 µg/mL (Pseudomonas aeruginosa [13]) [mm] | zone of inhibition at 15 mg/kg (Klebsiella pneumoniae [14]) [mm] | zone of inhibition at 10000 µg/mL (Staphylococcus aureus [15]) [mm] | zone of inhibition at 15000 µg/mL (Pseudomonas aeruginosa [16]) [mm] | zone of inhibition at 15000 µg/mL (Escherichia coli [17]) [mm] | MIC (Corynebacterium [18]) [µg/mL] | zone of inhibition at 10000 µg/mL (Escherichia coli [21]) [mm] | zone of inhibition at 5000 µg/mL (Pseudomonas aeruginosa [22]) [mm] | other results |
| --- | --- | --- | --- | --- | --- | --- | --- | --- | --- | --- | --- | --- | --- | --- | --- | --- | --- | --- | --- | --- | --- |
| CN[C@@H]1[C@H](O[C@H]2[C@H](O[C@H]3[C@H](O)[C@@H](O)[C@H](N=C(N)N)[C@@H](O)[C@@H]3N=C(N)N)O[C@@H](C)[C@]2(O)C=O)O[C@@H](CO)[C@H](O)[C@H]1O [STREPTOMYCIN] | 8 | 8 | 8 (≈ 13.8 µM) | 20 | 2 | 3 | 2 | 16 (≈ 27.5 µM) | 10 | 20 | 16 (≈ 27.5 µM) | 10 | 11 | 14 | 4 | 15 |  |  |  |  |  |
| N.O=NN(O)c1ccc(Cl)cc1 | 25 | 16.1 | 4 | 23 | 9 | 15 | 12 | 20 | 19 | 35 | 20 | 27 | 10 | 15 | 9 | 13 | 20 | 8 | 14 | 5 | Activity (LLC-PK1): Non-Toxic; MIC (Salmonella typhi [19]): 20 µg/mL; MIC (Staphylococcus aureus [20]): 4 µg/mL; zone of inhibition at 5 mg/kg (Salmonella typhi [23]): 9 mm; zone of inhibition at 5000 µg/mL (Corynebacterium [24]): 13 mm; zone of inhibition at 10 mg/kg (Klebsiella pneumoniae [25]): 11 mm; Activity (HepG2): Non-Toxic; MIC (Pseudomonas aeruginosa [26]): 20 µg/mL; zone of inhibition at 5000 µg/mL (Escherichia coli [27]): 10 mm; zone of inhibition at 5000 µg/mL (Bacillus subtilis [28]): 14 mm; MIC (Bacillus subtilis [29]): 2 µg/mL; zone of inhibition at 15 mg/kg (Salmonella typhi [30]): 19 mm; zone of inhibition at 5 mg/kg (Klebsiella pneumoniae [31]): 8 mm; zone of inhibition at 10 mg/kg (Salmonella typhi [32]): 13 mm |
| O=C(O)c1cn(C2CC2)c2cc(N3CCNCC3)c(F)cc2c1=O [CIPROFLOXACIN] | 22 | 16 |  | 19 | 7 | 13 | 10 |  | 15 | 27 |  | 26 | 18 | 25 | 10 | 25 | 10 | 4 (≈ 12.1 µM) | 11 | 15 | zone of inhibition at 5000 µg/mL (Corynebacterium [24]): 10 mm; zone of inhibition at 10 mg/kg (Klebsiella pneumoniae [25]): 12 mm; zone of inhibition at 5000 µg/mL (Bacillus subtilis [28]): 12 mm; MIC (Bacillus subtilis [29]): 2 µg/mL (≈ 6.04 µM); zone of inhibition at 15 mg/kg (Salmonella typhi [30]): 32 mm; zone of inhibition at 10 mg/kg (Salmonella typhi [32]): 15 mm |
